Experimental data: ChEMBL document CHEMBL3044970, “Isoniazid: the magic molecule” (2012)
≈ marks a conversion by molar mass, not a printed value.

What was measured:
Type in all cases: functional
[1] = Selectivity ratio of MIC for Mycobacterium tuberculosis H37Rv to MIC for INH-resistant Mycobacterium tuberculosis clinical isolate
[2] = tested on: Mycobacterium tuberculosis; test: Antimicrobial activity against INH-resistant Mycobacterium tuberculosis
[3] = tested on: Mycobacterium tuberculosis; test: Antimicrobial activity against INH-resistant Mycobacterium tuberculosis by agar dilution method relative to isonicotinoyl hydrazide
[4] = tested on: Mycobacterium tuberculosis; test: Antimicrobial activity against drug-resistant Mycobacterium tuberculosis infected in macrophages
[5] = tested on: Mycobacterium tuberculosis; test: Ratio of INH MIC to compound MIC for INH-resistant Mycobacterium tuberculosis

## O=C(c1ccncc1)N1N=C(c2ccco2)CC1(O)C(F)(F)F (stereo unspecified)
[1]
  Selectivity ratio: 2

## O=C(NNC(=S)Nc1ccccc1C(F)(F)F)c1ccncc1
[2]
  MIC: 0.58 µM (≈ 0.197 µg/mL)
[3]
  Ratio: 157

## C/C(=N\NC(=O)c1ccncc1)c1cccc(F)c1
[4]
  MIC: < 0.05 µg/mL

## COc1cc(C2=NN(C(=O)c3ccncc3)C(c3ccc(O)cc3)C2)ccc1OCC(=O)O (stereo unspecified)
[5]
  Ratio: 78
[2]
  MIC: 0.12 µM (≈ 0.0537 µg/mL)
